Read-outs that look alike come from different tables or passages of the source.
Assays:
[1] = system: splenocyte, primary cell acquired from the mouse spleen; assay: Cell proliferation (MTT) cytotoxicity, normal splenocyte; assay type: cell-based; details: 72 h
Description: (§1) Nine human cancerous cell lines, included human acute monocytic leukemia cell line (THP-1), human chronic myelogenous leukemia cell (K562), human acute lymphoblastic leukemia cell (CEM), human liver cancer cell line (HepG2), human colon cancer cell line (HT-29), human lung cancer cell line (H460), human breast cancer cell line (Hs578), human tongue squamous carcinoma (SAS), and human neuroblastoma cell line (SH—SY5Y) were purchased from the Bioresource Collection and Research Center (BCRC, Taiwan). A normal splenocyte is a primary cell acquired from the mouse spleen as a normal tissue cells to compare with nine cancer cell lines. They were cultured in either RPMI or DMEM (Gibco, CA, U.S.A) based media containing 2 mM L-glutamine, 1 mM sodium pyruvate, 50U/ml penicillin/50 μg/ml streptomycin (Gibco, CA, USA). and 10% fetal bovine serum ([…], HyClone Laboratories Inc., Logan, Utah, USA) at 37° C. with 5% CO2 supplied.
(§2) Cancer cells were seeded into 96-well plate at a starting density 8-10×10^3 cells/well. After overnight culture, [C16,TEGQ-Im]Cl, [C16,TEGQ-Imy)2Au]Cl, and AuNPs-B were added at various concentrations and duration times. Cisplantin of same concentration was added in the same plate as positive control (Sigma-Aldrich, St. Louis, Mo., USA). The proliferation of the cells was measured at 72 h by the MTT method. The cell viability was examined using Ethidium bromide/Acride orange vital stain to exclude the dead cells and normalized the number of living cells to the total counted cells. […] All experiments were performed in triplicate to calculate the experimental averages and standard deviations. […]

[2] = system: HT-29 human colon cancer cell line; assay: Cell proliferation (MTT) cytotoxicity, HT-29; assay type: cell-based; details: HT-29, 72 h
Description: as §1, §2

[3] = system: H460 human lung cancer cell line; assay: Cell proliferation (MTT) cytotoxicity, H460; assay type: cell-based
Description: as §1, §2

[4] = system: HepG2 human liver cancer cell line; assay: Cell proliferation (MTT) cytotoxicity, HepG2; assay type: cell-based; details: HepG2, 72 h
Description: as §1, §2

[5] = system: K562 human chronic myelogenous leukemia cell; assay: Cell proliferation (MTT) cytotoxicity, K562; assay type: cell-based; details: K562, 72 h
Description: as §1, §2

[6] = system: Hs578T human breast cancer cell line; assay: Cell proliferation (MTT) cytotoxicity, Hs578T; assay type: cell-based; details: 72 h
Description: as §1, §2

[7] = system: SH-SY5Y human neuroblastoma cell line; assay: Cell proliferation (MTT) cytotoxicity, SH-SY5Y; assay type: cell-based; details: 72 h
Description: as §1, §2

[8] = system: SAS human tongue squamous carcinoma; assay: Cell proliferation (MTT) cytotoxicity, SAS; assay type: cell-based; details: 72 h
Description: as §1, §2

[9] = system: THP-1 human acute monocytic leukemia cell line; assay: Cell proliferation (MTT) cytotoxicity, THP-1; assay type: cell-based; details: THP-1, 72 h
Description: as §1
(§3) Cancer cells were seeded into 96-well plate at a starting density 8-10×10^3 cells/well. After overnight culture, [C16,TEGQ-Im]Cl, [C16,TEGQ-Imy)2Au]Cl, and AuNPs-B were added at various concentrations and duration times. […] The proliferation of the cells was measured at 72 h by the MTT method. The cell viability was examined using Ethidium bromide/Acride orange vital stain to exclude the dead cells and normalized the number of living cells to the total counted cells. […]

[10] = system: CEM human acute lymphoblastic leukemia cell; assay: Cell proliferation (MTT) cytotoxicity, CEM; assay type: cell-based; details: 72 h
Description: as §1, §3

nine cancer cell lines = assay: In vitro cytotoxicity across the panel of cancer cell lines; assay type: cell-based, human
Description: as §1, §3

Solubility in water = assay type: physicochemical

Structure (SMILES) | IC50 [1] | IC50 [2] | IC50 ([3]; H460, 72 h) | IC50 [4] | IC50 [5] | IC50 [6] | IC50 [7] | IC50 [8] | other results
N.N.[Cl][Pt][Cl] [Cisplatin, reference compound] | 0.71 ± 0.05 µg/mL | 2.45 µg/mL | 1.23 ± 0.29 µg/mL | 1.67 ± 0.23 µg/mL | 0.61 µg/mL | 1.73 µg/mL | 0.60 µg/mL | 2.21 µg/mL | 
CCCCCCCCCCCCCCCCn1cc[n+](CCOCCOCCOc2cccc3cccnc23)c1.[Cl-] [[C16,TEGQ-Im]Cl, 3-hexadecyl-1-(2-(2-(2-(quinolin-8-yloxy)ethoxy)ethoxy)ethyl)-imidazolium chloride] |  |  |  |  |  |  |  |  | IC50 ([1]; read-out: IC50): 3.18 ± 0.76 µg/mL; IC50 ([2]; Homo sapiens, read-out: IC50): 0.88 ± 0.11 µg/mL; IC50 ([3]; Homo sapiens, NCI-H460, 72 h, read-out: IC50): 1.43 ± 0.3 µg/mL; IC50 ([9]; Homo sapiens, read-out: IC50): 0.37 µg/mL; IC50 ([10]; Homo sapiens, read-out: IC50): 0.67 ± 0.16 µg/mL; IC50 ([4]; Homo sapiens, read-out: IC50): 1.69 ± 0.14 µg/mL; IC50 (nine cancer cell lines; Homo sapiens, six cancer cell lines: THP-1, K562, HT-29, Hs578T, SH-SY5Y, SAS, read-out: IC50 values, range over cell lines): 0.22 to 0.89 µg/mL; IC50 ([5]; Homo sapiens, read-out: IC50): 0.22 ± 0.03 µg/mL; IC50 ([6]; Homo sapiens, Hs-578T, read-out: IC50): 0.39 ± 0.05 µg/mL; IC50 ([7]; Homo sapiens, read-out: IC50): 0.34 µg/mL; IC50 ([8]; Homo sapiens, read-out: IC50): 0.89 ± 0.56 µg/mL
CCCCCCCCCCCCCCCCn1cc[n+](CCOCCOCCOc2cccc3cccnc23)[c]1[Au-][c]1n(CCOCCOCCOc2cccc3cccnc23)cc[n+]1CCCCCCCCCCCCCCCC.[Cl-] [[(C16,TEGQ-Imy)2Au]Cl] | 4.06 ± 1.66 µg/mL | 29.41 ± 16.89 µg/mL | 6.64 ± 1.22 µg/mL | 7.47 ± 1.53 µg/mL | 2.71 ± 0.26 µg/mL | 0.66 ± 0.14 µg/mL | 1.14 ± 0.31 µg/mL | 0.74 ± 0.03 µg/mL | IC50 [9]: 3.37 ± 0.74 µg/mL; IC50 [10]: 4.11 ± 0.78 µg/mL; IC50, range over cell lines (nine cancer cell lines; all of the eight cancer cell lines): 2.7 to 29.4 µg/mL; Solubility in water (Solubility in water): relatively poor solubility in water

Reference: US9855280B2, “Nanoparticles containing azolium and N-heterocyclic carbene compounds and use thereof” (National Dong Hwa University, priority 2015, dated 2018)
